According to the NIST ThermoML archive (doi:10.1021/acs.jced.7b00458):
± gives the expanded uncertainty stated by the source.

Details: 100 kPa, Liquid; for electrical conductivity: Alternating current cell with electrodes; for viscosity: Concentric cylinders viscometry; for mass density: Vibrating tube method

CC[P+](CC)(CC)CCOC.O=S(=O)([N-]S(=O)(=O)C(F)(F)F)C(F)(F)F
Details	electrical conductivity [S/m]	mass density [kg/m3]	viscosity [mPa·s]
298.15 K	0.384 ± 0.046	1378 ± 1	48.14 ± 0.34
300.15 K	0.411 ± 0.049	1376 ± 1	44.28 ± 0.31
306.15 K	0.498 ± 0.06	1370 ± 1	34.95 ± 0.25
312.15 K	0.608 ± 0.073	1365 ± 1	28.1 ± 0.2
318.15 K	0.719 ± 0.086	1360 ± 1	22.97 ± 0.16
324.15 K	0.848 ± 0.1	1354 ± 1	19.04 ± 0.14
330.15 K	0.987 ± 0.12	1349 ± 1	16.01 ± 0.11
336.15 K	1.13 ± 0.14	1344 ± 1	13.62 ± 0.1
341.15 K	–	1339 ± 1	11.98 ± 0.09
348.15 K	1.45 ± 0.17	1333 ± 1	10.15 ± 0.07
355.15 K	–	1327 ± 1	8.692 ± 0.062
361.15 K	1.84 ± 0.22	1322 ± 1	7.672 ± 0.055
373.15 K	–	1311 ± 1	5.99 ± 0.044

CCCC[N+]1(C)CCCCC1.O=S(=O)([N-]S(=O)(=O)C(F)(F)F)C(F)(F)F
Details	electrical conductivity [S/m]	mass density [kg/m3]	viscosity [mPa·s]
298.15 K	0.139 ± 0.017	1382 ± 1	188.9 ± 3.5
300.15 K	0.153 ± 0.018	1380 ± 1	168 ± 2.9
306.15 K	0.202 ± 0.024	1375 ± 1	120.2 ± 1.6
312.15 K	0.264 ± 0.032	1370 ± 1	88.67 ± 0.85
318.15 K	0.337 ± 0.04	1365 ± 1	67.13 ± 0.5
324.15 K	0.424 ± 0.051	1360 ± 1	52.01 ± 0.34
330.15 K	0.519 ± 0.062	1355 ± 1	41.12 ± 0.29
336.15 K	0.626 ± 0.075	1349 ± 1	33.12 ± 0.23
341.15 K	–	1345 ± 1	27.98 ± 0.2
348.15 K	0.876 ± 0.1	1339 ± 1	22.51 ± 0.16
355.15 K	–	1333 ± 1	18.36 ± 0.13
361.15 K	1.19 ± 0.14	1329 ± 1	15.62 ± 0.11
373.15 K	–	1319 ± 1	11.62 ± 0.08

CCCC[N+]1(C)CCCC1.O=S(=O)([N-]S(=O)(=O)C(F)(F)F)C(F)(F)F
Details	electrical conductivity [S/m]	mass density [kg/m3]	viscosity [mPa·s]
298.15 K	0.393 ± 0.039	1395 ± 1	77.76 ± 0.66
300.15 K	0.423 ± 0.042	1393 ± 1	71.11 ± 0.56
306.15 K	0.52 ± 0.052	1388 ± 1	54.97 ± 0.36
312.15 K	0.638 ± 0.064	1382 ± 1	43.41 ± 0.31
318.15 K	0.772 ± 0.077	1377 ± 1	34.92 ± 0.25
324.15 K	0.924 ± 0.092	1372 ± 1	28.56 ± 0.2
330.15 K	1.08 ± 0.11	1367 ± 1	23.69 ± 0.17
336.15 K	1.26 ± 0.13	1361 ± 1	19.91 ± 0.14
341.15 K	–	1357 ± 1	17.37 ± 0.12
348.15 K	1.64 ± 0.16	1351 ± 1	14.53 ± 0.1
355.15 K	–	1345 ± 1	12.31 ± 0.09
361.15 K	2.11 ± 0.21	1340 ± 1	10.78 ± 0.08
373.15 K	–	1330 ± 1	8.272 ± 0.06

CCCCC[P+](CC)(CC)CC.O=S(=O)([N-]S(=O)(=O)C(F)(F)F)C(F)(F)F
Details	electrical conductivity [S/m]	mass density [kg/m3]	viscosity [mPa·s]
298.15 K	0.21 ± 0.025	1304 ± 1	85.3 ± 0.79
300.15 K	0.223 ± 0.027	1302 ± 1	77.43 ± 0.65
306.15 K	0.286 ± 0.034	1297 ± 1	58.68 ± 0.4
312.15 K	0.358 ± 0.043	1292 ± 1	45.42 ± 0.32
318.15 K	0.435 ± 0.052	1287 ± 1	35.82 ± 0.25
324.15 K	0.521 ± 0.063	1282 ± 1	28.79 ± 0.2
330.15 K	0.612 ± 0.073	1277 ± 1	23.5 ± 0.17
336.15 K	0.711 ± 0.085	1272 ± 1	19.46 ± 0.14
341.15 K	–	1268 ± 1	16.79 ± 0.12
348.15 K	0.917 ± 0.11	1262 ± 1	13.86 ± 0.1
355.15 K	–	1256 ± 1	11.58 ± 0.08
361.15 K	1.17 ± 0.14	1251 ± 1	10.02 ± 0.07
373.15 K	–	1241 ± 1	7.531 ± 0.054
